Reference: ChEMBL document CHEMBL3508693 (2016)

Columns and labels:
[1] = target: T1, CYP1A2 (Homo sapiens, UniProt P05177); assay: Inhibitory activity of 20 uM SPP100 on 545 Pmoles of cDNA-derived CYP1A2 enzyme in microsome prepared from human lymphoblastoid cell line; assay type: ADME, microsomes; set-up: conc 20 uM, interact cpd conc 50 uM; settings: probe phenacetin
T1 sequence (P05177 whole entry): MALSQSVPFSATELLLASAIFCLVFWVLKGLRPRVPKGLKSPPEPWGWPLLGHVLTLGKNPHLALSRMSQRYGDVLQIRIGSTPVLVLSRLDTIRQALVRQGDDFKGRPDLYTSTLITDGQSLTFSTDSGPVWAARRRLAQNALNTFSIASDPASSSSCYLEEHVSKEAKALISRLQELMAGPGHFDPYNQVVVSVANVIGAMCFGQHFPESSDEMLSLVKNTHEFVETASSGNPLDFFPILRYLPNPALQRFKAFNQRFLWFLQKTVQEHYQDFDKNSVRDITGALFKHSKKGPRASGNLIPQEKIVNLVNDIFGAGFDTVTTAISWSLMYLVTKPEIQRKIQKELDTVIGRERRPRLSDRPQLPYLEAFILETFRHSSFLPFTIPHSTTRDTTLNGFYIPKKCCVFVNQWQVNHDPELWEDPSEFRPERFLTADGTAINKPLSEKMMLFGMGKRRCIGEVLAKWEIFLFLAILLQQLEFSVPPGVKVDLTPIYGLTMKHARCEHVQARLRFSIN

[2] = Oral clearance of SPP100 following single oral dose of SPP100 75 mg capsule studied in healthy human; assay type: ADME, organism-based; settings: plasma
[3] = Terminal elimination half-life of SPP100 following single oral dose of SPP100 600 mg capsule studied in healthy human; assay type: ADME, organism-based; settings: plasma
[4] = % SPP100 in urine following single oral dose of 300 mg [14C]SPP100 studied in healthy men; assay type: ADME, organism-based; settings: human, in vivo, at 300 mg
[5] = % of radioactivity recovered as aliskiren in urine following intravenous administration of [14C] aliskiren hemifumarate at 10 mg.Kg-1 level in rat; assay type: ADME, organism-based, Albino HAN:WIST; settings: in vivo
[6] = Cmax (0-168h) of total radioactivity following single intravenous administration of [14C] aliskiren hemifumarate at 1 mg.Kg-1 level in marmoset; assay type: ADME, organism-based, Callithrix jacchus, Plasma; settings: in vivo
[7] = Excretion of radioactivity (0-24h) in urine following single oral dose of 500 mg.Kg-1 [14C] aliskiren hemifumarate in mouse; assay type: ADME, organism-based, TgRasH2; settings: in vivo
[8] = target: T2, Cytochrome P450 2J2 (Homo sapiens, UniProt P51589); assay: Metabolic clearance (ul.min.nmol-1 CYP) of aliskiren hemifumarate for CYP2J2 was determined in human liver microsome incubated with [14C]SPP100 hemifumarate; assay type: ADME; settings: microsomes
T2 sequence (P51589 whole entry): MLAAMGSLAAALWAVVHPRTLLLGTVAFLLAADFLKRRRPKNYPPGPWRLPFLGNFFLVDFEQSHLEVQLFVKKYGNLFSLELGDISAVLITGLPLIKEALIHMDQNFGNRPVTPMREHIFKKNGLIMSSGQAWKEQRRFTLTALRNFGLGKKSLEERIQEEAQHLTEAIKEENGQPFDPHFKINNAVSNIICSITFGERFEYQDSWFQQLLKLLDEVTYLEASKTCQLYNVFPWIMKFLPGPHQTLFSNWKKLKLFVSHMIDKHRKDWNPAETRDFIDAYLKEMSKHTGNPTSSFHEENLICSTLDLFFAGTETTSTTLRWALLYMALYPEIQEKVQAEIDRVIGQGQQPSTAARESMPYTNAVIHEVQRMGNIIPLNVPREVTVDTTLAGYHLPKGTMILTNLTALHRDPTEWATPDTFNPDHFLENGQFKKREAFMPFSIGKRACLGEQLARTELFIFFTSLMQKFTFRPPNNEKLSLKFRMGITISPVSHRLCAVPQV

[9] = Excretion (24h) of radioactivity in urine following oral administration of [14C] aliskiren hemifumarate at 100 mg.Kg-1 level in rat; assay type: ADME, organism-based, Lister-Hooded; settings: in vivo
[10] = Excretion of radioactivity (48-72h) in urine following single intravenous dose of 10 mg.Kg-1 [14C] aliskiren hemifumarate in mouse; assay type: ADME, organism-based, TgRasH2; settings: in vivo
[11] = Total excretion (0-72h) of radioactivity in urine, faeces and cage wash following single intravenous dose of 10 mg.Kg-1 [14C] aliskiren hemifumarate in mouse; assay type: ADME, organism-based, TgRasH2, Urine/Feces; settings: in vivo
[12] = Mean excretion of radioactivity (0-24h) in urine and faeces following single intravenous dose of 10 mg.Kg-1 [14C] aliskiren hemifumarate in mouse; assay type: ADME, organism-based, TgRasH2, Urine/Feces; settings: in vivo
[13] = Plasma concentration of [14C] aliskiren hemifumarate in first 4h following single intravenous […] dose of [14C] aliskiren hemifumarate at 10 mg.Kg-1 level in mouse; assay type: ADME, organism-based, TgRasH2; settings: in vivo
[14] = Tmax of [14C] aliskiren hemifumarate following single oral dose of [14C] aliskiren hemifumarate at 500 mg.Kg-1 level in mouse; assay type: ADME, organism-based, TgRasH2, Plasma; settings: in vivo
[15] = Concentration of radioactivity in the colon wall following repeated oral administration of [14C] aliskiren hemifumarate at 100 mg.Kg-1 level studied at 24h after 10th dose in rat; assay type: ADME, organism-based, Albino HAN:WIST; settings: in vivo
[16] = Concentration of radioactivity in the liver following repeated oral administration of [14C] aliskiren hemifumarate at 100 mg.Kg-1 level studied at 2h after 10th dose in rat; assay type: ADME, organism-based, Albino HAN:WIST; settings: in vivo
[17] = Excretion (0-168h) of radioactivity in faeces following intravenous administration of [14C] aliskiren hemifumarate at 1 mg.Kg-1 level in marmoset; assay type: ADME, organism-based, Callithrix jacchus, Feces; settings: in vivo
[18] = Concentration of radioactivity in the kidney medulla following repeated oral administration of [14C] aliskiren hemifumarate at 100 mg.Kg-1 level studied at 2h after 10th dose in rat; assay type: ADME, organism-based, Albino HAN:WIST, Renal medulla; settings: in vivo
[19] = AUC/dose (0-168h) of unlabeled aliskiren hemifumarate following single intravenous administration of aliskiren hemifumarate at 1 mg.Kg-1 level in marmoset; assay type: ADME, organism-based, Callithrix jacchus, Plasma; settings: in vivo
[20] = Cmax of aliskiren hemifumarate following 2 week oral dosing of aliskiren hemifumarate at 100 mg.Kg-1 level studied on day 14 in male Callithrix jacchus; assay type: ADME, organism-based; settings: marmoset, plasma
[21] = Tmax of aliskiren hemifumarate following 4 week oral dietary dosing of aliskiren hemifumarate at 2000 mg.Kg-1 level in male mouse; assay type: ADME, organism-based; settings: CB6F1-TGrasH2, mouse, in vivo
[22] = AUC (0-96h) of unlabeled aliskiren hemifumarate following oral administration of aliskiren hemifumarate at 100 mg.Kg-1 level in rat; assay type: ADME, organism-based; settings: Albino HAN:WIST, plasma
[23] = Cmax of aliskiren hemifumarate following repeated oral administration of [14C] aliskiren hemifumarate at 100 mg.Kg-1 level studied after 2h of dosing on day 10 in rat; assay type: ADME, organism-based, Albino HAN:WIST; settings: in vivo, read-out: Cmax(10)
[24] = AUC(0-24h) of aliskiren hemifumarate following 2 week oral dosing of aliskiren hemifumarate at 100 mg.Kg-1 level studied on day 14 in female Callithrix jacchus; assay type: ADME, organism-based; settings: marmoset, plasma
[25] = AUC (0-24h) of aliskiren hemifumarate following 4 week oral dietary dosing of aliskiren hemifumarate at 1000 mg.Kg-1 level in male mouse; assay type: ADME, organism-based; settings: CB6F1-TGrasH2, mouse, plasma
[26] = Cmaxspec of aliskiren hemifumarate following 2 week oral dosing of aliskiren hemifumarate at 100 mg.Kg-1 level studied on day 1 in female Callithrix jacchus; assay type: ADME, organism-based, Plasma; settings: marmoset, in vivo, 336 h

Q: With `COCCCOc1cc(C[C@@H](C[C@H](N)[C@@H](O)C[C@H](C(=O)NCC(C)(C)C(N)=O)C(C)C)C(C)C)ccc1OC` as the compound, how does the inhibition at 20 µM [1] read?
A: Its inhibition at 20 µM is -5.8%.

Q: What about the CL/F [2] of the same compound?
A: Its CL/F is 4900 mL/min.

Q: What about the half-life [3] of the same compound?
A: Its half-life is 34 h.

Q: What about the Compound recovery [4] of the same compound?
A: Its Compound recovery is 0.4%.

Q: What about the Compound recovery [5] of the same compound?
A: Its Compound recovery is over 2%.

Q: What does the source list for `COCCCOc1cc(C[C@@H](C[C@H](N)[C@@H](O)C[C@H](C(=O)NCC([14CH3])([14CH3])C(N)=O)C(C)C)C(C)C)ccc1OC.O=C(O)/C=C/C(=O)O`?
A: Cmax [6]: 11.4 µM; Radiolabel recovery [7]: 0.47%; CL [8]: 10.6 µL·min/nmol; Radiolabel recovery [9]: 73%; Radiolabel recovery [10]: 8.99%; Radiolabel recovery [11]: 93.38%; Radiolabel recovery [12]: 84.68%; Compound recovery [13]: 94%; Tmax [14]: 1 h; Radiolabel recovery [15]: OUTCOME = Observed, VALUE = Highest radioactivity concentration was observed; Radiolabel recovery [16]: OUTCOME = Detected; Radiolabel recovery [17]: 72%; Radiolabel recovery [18]: OUTCOME = Detected

Q: Which AUC normalised [19] does the source give for `COCCCOc1cc(C[C@@H](C[C@H](N)[C@@H](O)C[C@H](C(=O)NCC(C)(C)C(N)=O)C(C)C)C(C)C)ccc1OC.COCCCOc1cc(C[C@@H](C[C@H](N)[C@@H](O)C[C@H](C(=O)NCC(C)(C)C(N)=O)C(C)C)C(C)C)ccc1OC.O=C(O)/C=C/C(=O)O` [ALISKIREN FUMARATE] here?
A: Its AUC normalised is 49 (umol.h/L)/(mg/kg).

Q: And the Cmax [20]?
A: The Cmax was 9670 ng/mL.

Q: And the Tmax [21]?
A: Its Tmax is 1 h.

Q: And the AUC(0-t) at 96 h [22]?
A: The AUC(0-t) at 96 h was 3.01 µM·h.

Q: What about the Cmax [23] of the same compound?
A: The Cmax was 0.357 µM.

Q: And the AUC at 24 h [24]?
A: Its AUC at 24 h is 142000 ng·h/mL.

Q: What about the AUC(0-t) at 24 h [25] of the same compound?
A: The AUC(0-t) at 24 h was 4820 ng·h/mL.

Q: And the Cmax normalised [26]?
A: Its Cmax normalised is 0.079 (ug/ml)/(mg/kg).
